{"source": "ChEMBL document CHEMBL1151162", "about": "“Coumarins from Opopanax chironium. New dihydrofuranocoumarins and differential induction of apoptosis by imperatorin and heraclenin” (J Nat Prod, 2004)", "type_in_all_cases": "functional, cell-based", "key": {"[1]": {"tested_on": "Jurkat", "experiment": "Induction of cell cycle arrest in human Jurkat cells assessed as accumulation at G2/M phase at 25 ug/mL after 48 hrs"}, "[2]": {"tested_on": "Jurkat", "experiment": "Induction of cell cycle arrest in human Jurkat cells assessed as accumulation at G2/M phase after 48 hrs"}, "[3]": {"tested_on": "Jurkat", "experiment": "Induction of DNA fragmentation at G1/S phase in human Jurkat cells after 72 hrs by propidium iodide and FITC-dUTP double staining"}, "[4]": {"tested_on": "Jurkat", "experiment": "Induction of DNA fragmentation at G2/M phase in human Jurkat cells after 72 hrs by propidium iodide and FITC-dUTP double staining"}, "[5]": {"tested_on": "Jurkat", "experiment": "Induction of apoptosis in human Jurkat cells assessed as hypodiploidic cells after 72 hrs"}}, "note": "Activity calls are given as the source filed them. No cut-off for these calls is given here.", "data": [{"smiles": "CC(C)=CCOc1c2occc2cc2ccc(=O)oc12", "values": [{"measurement": "Activity", "setting": "[1]", "value": "inactive"}, {"measurement": "Activity", "setting": "[2]", "value": "inactive"}, {"measurement": "Activity", "setting": "[3]", "value": "Active"}]}, {"smiles": "CC1(C)O[C@@H]1COc1c2occc2cc2ccc(=O)oc12", "values": [{"measurement": "Activity", "setting": "[4]", "value": "Active"}, {"measurement": "Activity", "setting": "[2]", "value": "Active"}, {"measurement": "Activity", "setting": "[5]", "value": "Active"}]}]}
